One test concerns SIRT1 gene. Kind of test: SIRT1 gene expression promoting effect in aged human vascular endothelial cells (RT-PCR). It is filed as cell-based. The following applies: aged human vascular endothelial cells (14 PDL to 40 PDL), 20, 50 or 100 μM every other day, vs DMSO; FIG. 2. How it is done:
The SIRT1 gene expression promoting effect of syringaresinol in aged human vascular endothelial cells was evaluated as follows.
Human vascular endothelial cells purchased from Lonza (Walkersville, Md., USA) were cultured using the endothelial cell growth medium EGM-2 SingleQuots (Lonza) in a 5% CO2 incubator until 70% confluency. […] The population doubling level (PDL) was calculated according to the following equation for each generation until the cell growth was stopped. The PDL value is higher in aged cells. PDL=(Log10 Y−Log10 X)/Log10 2
Y: number of cells at the end of the generation
X: number of cells at the beginning of the generation
14 PDL cells were treated with syringaresinol dissolved in DMSO at a concentration of 20, 50 or 100 μM every other day while inducing aging to 40 PDL cells. The cells of a negative control group were treated with DMSO of 1/1000 of the volume of the medium. The cells treated with each sample were washed 2 times with cold PBS and RNA was extracted using TRIzol reagent (Invitrogen). cDNA was synthesized from the extracted RNA (1 μg/μL) using a reverse transcription system (Promega). Subsequently, the expression pattern of the SIRT1 and GAPDH genes was measured using the synthesized cDNA and predesigned primers and probes (Applied Biosystems; SIRT1, Hs01009006_m1; GAPDH, Hs99999905_m1). […]

The subject of test [1] is aged vascular endothelial cells (SA-β-gal). Kind of test: Aging marker SA-β-gal staining in aged vascular endothelial cells (Cellular Senescence Assay kit). It is filed as cell-based, human. Conditions: 50 μM, compared to cells treated only with DMSO. How it is done:
The aging of vascular endothelial cells was induced by treating with 50 μM syringaresinol in substantially the same manner as in Test Example 1. The aged cells were washed with PBS and stained at 37° C. for 16 hours using a fixative and a stain provided together with the Cellular Senescence Assay kit (Cell Biolabs, Inc., San Diego, Calif., USA). Next day, the cells were washed with PBS, overlaid with 20% glycerol solution and observed under a microscope. The number of the cells stained green was counted and the activity of the aging marker SA-β-gal was determined.

In another test the test system is telomerase. Kind of test: Telomerase activity in aged vascular endothelial cells (TeloTAGGG telomerase PCR ELISA Plus kit). The class given is cell-based, human. Conditions: 50 μM, compared to cells treated only with DMSO, FIG. 5. How it is done: The aging of vascular endothelial cells was induced by treating with 50 μM syringaresinol or DMSO as control in substantially the same manner as in Test Example 1. The aged cells were washed with PBS and lysed using lysis buffer (Sigma), and the obtained protein was quantitated. Telomerase activity was evaluated using the TeloTAGGG telomerase PCR ELISA Plus kit (Roche Applied Science, Indianapolis, Ind., USA).
(ELISA stands for enzyme-linked immunosorbent assay.)

For another test, the system named is eNOS. Kind of test: eNOS protein expression in aged vascular endothelial cells (Western blot). It is filed as cell-based, human. The following applies: 50 μM, vs DMSO and young cells, FIG. 6. How it is done: (§1) In order to evaluate whether syringaresinol can restore the declined function of aged vascular cells to that of young vascular cells, the aging of vascular endothelial cells was induced by treating with 50 μM syringaresinol or DMSO as control in substantially the same manner as in Test Example 1. […] As a result, cardiovascular diseases such as arteriosclerosis can occur easily. The cells treated with syringaresinol or DMSO were washed with PBS and lysed with lysis buffer (Sigma), and the supernatant was recovered. Then, protein present in the supernatant was quantitated using Protein Dye Reagent™ (Bio-Rad). 100 μg of the obtained protein was fractionated by size by electrophoresing on 8% SDS-PAGE and transferred onto PVDF membrane (Bio-Rad) for 12 hours with 50 V. Then, the membrane was blocked for 1 hour with 5% non-fat milk and treated with anti-eNOS, anti-PAI-1 and anti-actin antibodies, as primary antibodies, and horse radish peroxidase (HRP)-conjugated anti-rabbit IgG (Amersham) as secondary antibody, and reacted using the enhanced chemiluminescence (ECL) kit (Amersham). The reacted PVDF membrane exposed to X-ray Fuji film and developed to investigate the protein expression level.
(In general: Immunoblotting shows a protein as a band on a membrane.)

The next test concerns PAI-1. Description: PAI-1 protein expression in aged vascular endothelial cells (Western blot). It is filed as cell-based, human. Conditions: 50 μM, vs DMSO and young cells, FIG. 6. How it is done:
as §1

Turning to `COc1cc(C2OCC3C(c4cc(OC)c(O)c(OC)c4)OCC23)cc(OC)c1O` (stereo not drawn) [syringaresinol], the SIRT1 gene expression entry with SIRT1 gene was “increases the decreased SIRT1 expression in aged vascular endothelial cells in a concentration-dependent manner”. The “number of green-stained (SA-β-gal) cells” value in test [1] (FIG. 3 and 4) is listed as “remarkably smaller number of green-stained cells”. For the same compound, the “decrease of SA-β-gal activity” value in test [1] (FIG. 4) is given as approximately 50%. Also, the “increase of telomerase activity” value in the test on telomerase is “about 30%”. In addition, the eNOS expression entry in the test on eNOS was “increased eNOS expression comparable to that of young cells”. The PAI-1 expression result in the test on PAI-1 is reported as “decreased PAI-1 expression comparable to that of young cells”.
